In ChEMBL document CHEMBL3045199, “Synthesis of some (E)-6-[2-(furan-2-yl)ethenyl]-1,2,4-triazin-5-ones and their biological evaluation as antitumor agents” (2013):

Assays:
Format in all cases: functional
MDA-MB-468 = experiment: Cytotoxicity against Homo sapiens (human) MDA-MB-468 cells assessed as growth inhibition at 10 uM after 24 hr; conditions: MDA-MB-468, 24 h, read-out: GI
SK-MEL-2 = experiment: Cytotoxicity against Homo sapiens (human) SK-MEL-2 cells assessed as growth inhibition at 10 uM after 24 hr; conditions: SK-MEL-2, 24 h, read-out: GI
T47D = experiment: Cytotoxicity against Homo sapiens (human) T47D cells assessed as growth inhibition at 10 uM after 24 hr; conditions: read-out: GI
RXF 393 = experiment: Cytotoxicity against Homo sapiens (human) RXF393 cells assessed as growth inhibition at 10 uM after 24 hr; conditions: RXF 393, 24 h, read-out: GI
UO-31 = experiment: Cytotoxicity against Homo sapiens (human) UO31 cells assessed as growth inhibition at 10 uM after 24 hr; conditions: UO-31, 24 h, read-out: GI
IGROV-1 = experiment: Cytotoxicity against Homo sapiens (human) IGROV1 cells assessed as growth inhibition at 10 uM after 24 hr; conditions: IGROV-1, 24 h, read-out: GI
MCF7 = experiment: Cytotoxicity against Homo sapiens (human) MCF7 cells assessed as growth inhibition at 10 uM after 24 hr; conditions: MCF7, 24 h, read-out: GI
HL-60(TB) = experiment: Cytotoxicity against Homo sapiens (human) HL-60(TB) cells assessed as growth inhibition at 10 uM after 24 hr; conditions: HL-60, 24 h, read-out: GI
OVCAR-8 = experiment: Cytotoxicity against Homo sapiens (human) OVCAR8 cells assessed as growth inhibition at 10 uM after 24 hr; conditions: OVCAR-8, 24 h, read-out: GI

SMILES	inhibition of growth at 10 µM (MDA-MB-468) [%]	inhibition of growth at 10 µM (SK-MEL-2) [%]	inhibition of growth at 10 µM (T47D) [%]	inhibition of growth at 10 µM (RXF 393) [%]	inhibition of growth at 10 µM (UO-31) [%]	inhibition of growth at 10 µM (IGROV-1) [%]	inhibition of growth at 10 µM (MCF7) [%]	inhibition of growth at 10 µM (HL-60(TB)) [%]	inhibition of growth at 10 µM (OVCAR-8) [%]
O=C(CSc1nc(=O)c(/C=C/c2ccco2)n[nH]1)c1ccc(Cl)cc1	57.3	42.3	38.3	62.5	33.3	80.4	80.8		
O=C1CC(=O)N(c2nc(=O)c(/C=C/c3ccco3)n[nH]2)N1								54.3	
Nn1c(=S)[nH]nc(/C=C/c2ccco2)c1=O		70.7				77	72.7		59.1
O=c1c(/C=C/c2ccco2)n[nH]c(=S)n1/N=C/c1ccc([N+](=O)[O-])cc1		70.3				75.6	73.1		47.8
